The supplement of paper PMC10307832

Legend:
Experiment in all cases: relative viability (nuclei count vs DMSO), 5 days (fraction); higher = more cells survive
[1] = test system: NCI-H441
Procedure, shortened: (§1)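 Dosing by pin tool came one day after lung cancer cell lines were seeded in 1536-well plates, using either one drug or a fixed anchor-drug dose plus five library-drug doses (not always all listed) in √10 steps. After 5 days, nuclei were counted on 4× images. Relative viability is treated-well nuclei count divided by vehicle-well nuclei count, and values are medians of duplicate plates.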

[2] = test system: NCI-H23
Procedure, shortened: as §1

[3] = test system: NCI-H1975
Procedure, shortened: as §1

[4] = test system: NCI-H1734
Procedure, shortened: as §1

[5] = test system: PC-3 [JPC-3]
Procedure, shortened: as §1

[6] = test system: SK-MES-1
Procedure, shortened: as §1

[7] = test system: LOU-NH91
Procedure, shortened: as §1

[8] = test system: NCI-H1755
Procedure, shortened: as §1

[9] = test system: H3255
Procedure, shortened: as §1

[10] = test system: NCI-H1563
Procedure, shortened: as §1

[11] = test system: A-427
Procedure, shortened: as §1

[12] = test system: COR-L 105
Procedure, shortened: as §1

[13] = test system: NCI-H596
Procedure, shortened: as §1

[14] = test system: HCC-366
Procedure, shortened: as §1

[15] = test system: EKVX
Procedure, shortened: as §1

[16] = test system: NCI-H1666
Procedure, shortened: as §1

[17] = test system: NCI-H520
Procedure, shortened: as §1

[18] = test system: LK-2
Procedure, shortened: as §1

[19] = test system: EMC-BAC-2
Procedure, shortened: as §1

O=c1cc(-c2cccc3c2Sc2ccccc2S3)oc(N2CCOCC2)c1 + C[C@]1(O)C[C@@H](c2nc(-c3ccc4ccc(-c5ccccc5)nc4c3)c3c(N)nccn32)C1 [Linsitinib] (partner 1 µM)
relative viability ([1]; first compound 0.08 µM): 0.549
relative viability ([1]; first compound 0.253 µM): 0.619
relative viability ([1]; first compound 0.8 µM): 0.759
relative viability ([1]; first compound 2.53 µM): 0.584
relative viability ([1]; first compound 8 µM): 0.632
relative viability ([2]; first compound 0.08 µM): 0.596
relative viability ([2]; first compound 0.253 µM): 0.738
relative viability ([2]; first compound 0.8 µM): 0.578
relative viability ([2]; first compound 2.53 µM): 0.684
relative viability ([2]; first compound 8 µM): 0.574
relative viability ([3]; first compound 0.08 µM): 1.07
relative viability ([3]; first compound 0.253 µM): 1.2
relative viability ([3]; first compound 0.8 µM): 0.807
relative viability ([3]; first compound 2.53 µM): 0.863
relative viability ([3]; first compound 8 µM): 0.881
relative viability ([4]; first compound 0.08 µM): 0.854
relative viability ([4]; first compound 0.253 µM): 1.16
relative viability ([4]; first compound 0.8 µM): 1
relative viability ([4]; first compound 2.53 µM): 0.876
relative viability ([4]; first compound 8 µM): 1.13
relative viability ([5]; first compound 0.08 µM): 1.02
relative viability ([5]; first compound 0.253 µM): 1.03
relative viability ([5]; first compound 0.8 µM): 0.992
relative viability ([5]; first compound 2.53 µM): 0.972
relative viability ([5]; first compound 8 µM): 0.91
relative viability ([6]; first compound 0.08 µM): 1.12
relative viability ([6]; first compound 0.253 µM): 1.16
relative viability ([6]; first compound 0.8 µM): 0.956
relative viability ([6]; first compound 2.53 µM): 1.08
relative viability ([6]; first compound 8 µM): 1.05
relative viability ([7]; first compound 0.08 µM): 0.946
relative viability ([7]; first compound 0.253 µM): 0.923
relative viability ([7]; first compound 0.8 µM): 0.845
relative viability ([7]; first compound 2.53 µM): 0.769
relative viability ([7]; first compound 8 µM): 0.893
relative viability ([8]; first compound 0.08 µM): 1.03
relative viability ([8]; first compound 0.253 µM): 1.1
relative viability ([8]; first compound 0.8 µM): 0.978
relative viability ([8]; first compound 2.53 µM): 1.02
relative viability ([8]; first compound 8 µM): 0.936
relative viability ([9]; first compound 0.08 µM): 1.15
relative viability ([9]; first compound 0.253 µM): 1.03
relative viability ([9]; first compound 0.8 µM): 1.02
relative viability ([9]; first compound 2.53 µM): 0.865
relative viability ([9]; first compound 8 µM): 0.983
relative viability ([10]; first compound 0.08 µM): 1.19
relative viability ([10]; first compound 0.253 µM): 1.42
relative viability ([10]; first compound 0.8 µM): 1.2
relative viability ([10]; first compound 2.53 µM): 1.2
relative viability ([10]; first compound 8 µM): 1.06
relative viability ([11]; first compound 0.08 µM): 1.09
relative viability ([11]; first compound 0.253 µM): 0.959
relative viability ([11]; first compound 0.8 µM): 1.19
relative viability ([11]; first compound 2.53 µM): 1.07
relative viability ([11]; first compound 8 µM): 1.08
relative viability ([12]; first compound 0.08 µM): 0.771
relative viability ([12]; first compound 0.253 µM): 1.11
relative viability ([12]; first compound 0.8 µM): 0.823
relative viability ([12]; first compound 2.53 µM): 0.958
relative viability ([12]; first compound 8 µM): 1.07
relative viability ([13]; first compound 0.08 µM): 1.02
relative viability ([13]; first compound 0.253 µM): 1.2
relative viability ([13]; first compound 0.8 µM): 1.14
relative viability ([13]; first compound 2.53 µM): 1.08
relative viability ([13]; first compound 8 µM): 1.15
relative viability ([14]; first compound 0.08 µM): 0.605
relative viability ([14]; first compound 0.253 µM): 1.07
relative viability ([14]; first compound 0.8 µM): 0.711
relative viability ([14]; first compound 2.53 µM): 0.744
relative viability ([14]; first compound 8 µM): 0.573
relative viability ([15]; first compound 0.08 µM): 1.17
relative viability ([15]; first compound 0.253 µM): 1.13
relative viability ([15]; first compound 0.8 µM): 0.818
relative viability ([15]; first compound 2.53 µM): 1.02
relative viability ([15]; first compound 8 µM): 0.935
relative viability ([16]; first compound 0.08 µM): 0.827
relative viability ([16]; first compound 0.253 µM): 0.946
relative viability ([16]; first compound 0.8 µM): 0.545
relative viability ([16]; first compound 2.53 µM): 0.738
relative viability ([16]; first compound 8 µM): 0.805
relative viability ([17]; first compound 0.08 µM): 0.897
relative viability ([17]; first compound 0.253 µM): 1.06
relative viability ([17]; first compound 0.8 µM): 1.15
relative viability ([17]; first compound 2.53 µM): 0.972
relative viability ([17]; first compound 8 µM): 1.02
relative viability ([18]; first compound 0.08 µM): 0.64
relative viability ([18]; first compound 0.253 µM): 0.527
relative viability ([18]; first compound 0.8 µM): 0.549
relative viability ([18]; first compound 2.53 µM): 0.533
relative viability ([18]; first compound 8 µM): 0.651
relative viability ([19]; first compound 0.08 µM): 0.828
relative viability ([19]; first compound 0.253 µM): 0.9
relative viability ([19]; first compound 0.8 µM): 0.842
relative viability ([19]; first compound 2.53 µM): 0.817
relative viability ([19]; first compound 8 µM): 0.878
